{"source": "paper PMC7604503", "about": "“Cyclic peptides can engage a single binding pocket through highly divergent modes” (Proceedings of the National Academy of Sciences of the …, 2020)", "key": {"[1]": {"system": "BD1 domains (BRD2-BD1, BRD3-BD1, BRD4-BD1)", "experiment": "SPR binding, stated for the BD1 domains together", "parameters": "species or system human", "conditions": "for reduction of affinity relative to 3.1B: all three BD1 domains", "description": "(§1) We next assessed the ability of each of the three lead peptides to bind BRD3-BD1. […] To assess selectivity for other BET BDs, we used SPR to determine the binding affinity of each peptide toward the remaining BDs from BRD2, BRD3, and BRD4 (Fig. 1B). […]\n(§2) Peptides were synthesised as C-terminal amides using standard fluorenylmethyloxycarbonyl (Fmoc)-strategy solid-phase chemistry using a Syro I automated synthesiser (Biotage) and NovaPEG Rink Amide resin (Novabiochem). Couplings were performed with HBTU/HOBt (1:1) and 6 equivalents of each amino acid. Double couplings were performed for arginine residues.\n(§3) Following the final amino acid coupling reaction, the Fmoc group was removed and resin incubated with N-(chloroacetoxy)succinimide (0.2 M in DMF, 1 h, RT). Resin was washed with DMF (5 times) and DCM (5 times) and dried in vacuo.\n(§4) Linear peptides were cleaved from the resin by incubation (3 h, RT) with a trifluoroacetic acid (TFA) cleavage cocktail (TFA/2,2’-(ethylenedioxy)diethanethiol/triisopropyl silane/H2O (92.5:2.5:2.5:2.5)) before filtration, concentration in vacuo and precipitation with ice-cold diethyl ether. Crude peptides were washed with diethyl ether (5 times), dried and resuspended in DMSO. The pH was raised to >8 using triethylamine to allow cyclisation. Following incubation (1 h, RT), peptides were re-acidified with TFA for purification.\n(§5) Crude peptides were purified by reverse-phase high-performance liquid chromatography using a Chromolith Prep column (Merck) on a Prominence LC-20AP system (Shimadzu) (Solvent A: 0.1% TFA in H2O, Solvent B: 0.1% TFA in acetonitrile) to >95% purity as determined by mass spectrometry (Fig. S17). Purified peptides were reconstituted in DMSO and concentrations determined from their absorbance at 280 nm in 5% DMSO using predicted extinction coefficients.\n(§6) Surface plasmon resonance (SPR)\n(§7) Measurements were conducted on a T200 or S200 (GE Healthcare) and data analysed using the Biacore Insight Evaluation Software. Experiments were performed at 4 °C in single cycle kinetics mode. Biotinylated BET bromodomains were immobilised on a CAP chip (GE Healthcare) with a […]\n(§8) pH 7.5 was used as the running buffer. […]"}, "[2]": {"system": "BD2 domains (BRD2-BD2, BRD3-BD2, BRD4-BD2)", "experiment": "SPR binding, stated for the BD2 domains together", "parameters": "species or system human", "protocol": "Measurements were conducted on a T200 or S200 (GE Healthcare) and data analysed using the Biacore Insight Evaluation Software. Experiments were performed at 4 C in single cycle kinetics mode. Biotinylated BET bromodomains were immobilised on a CAP chip (GE Healthcare) with a\npH 7.5 was used as the running buffer. Between cycles the chip was regenerated following the"}, "[3]": {"target": "T1, BRD2-BD1 (Homo sapiens, UniProt P25440)", "T1 construct": "human BRD2 (BD1: 65-194; BD2: 347-455); Avi tag (biotinylated); made in house; host or cells: E. coli BL21(DE3)", "T1 sequence (P25440 65-194)": "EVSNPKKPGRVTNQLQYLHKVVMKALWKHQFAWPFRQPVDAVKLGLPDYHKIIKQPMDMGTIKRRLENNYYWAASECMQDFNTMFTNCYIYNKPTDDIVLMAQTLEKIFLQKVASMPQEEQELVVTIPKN", "experiment": "SPR binding of peptides to immobilised biotinylated BET bromodomain", "description": "as §1, §2, §3, §4, §5, §6, §7, §8"}, "[4]": {"target": "T2, BRD3-BD2 (Homo sapiens, UniProt Q15059)", "T2 construct": "Avi tag (biotinylated); made in house; host or cells: E. coli BL21(DE3)", "T2 sequence (Q15059 307-419)": "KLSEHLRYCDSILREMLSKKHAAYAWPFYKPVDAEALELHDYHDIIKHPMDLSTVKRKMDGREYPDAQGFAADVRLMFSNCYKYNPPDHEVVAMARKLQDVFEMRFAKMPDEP", "experiment": "SPR binding of peptides to immobilised biotinylated BET bromodomain", "description": "as §1, §2, §3, §4, §5, §6, §7, §8"}, "[5]": {"target": "T3, BRD4-BD1 (Homo sapiens, UniProt O60885)", "T3 construct": "BRD4 (BD1: 42-168; BD2: 348-464); Avi tag (biotinylated); made in house; host or cells: E. coli Rosetta2(DE3)", "experiment": "SPR binding of peptides to immobilised biotinylated BET bromodomain", "description": "as §1, §2, §3, §4, §5, §6, §7, §8"}, "[6]": {"target": "T4, BRD4-BD2 (Homo sapiens, UniProt O60885)", "T4 construct": "BRD4 (BD1: 42-168; BD2: 348-464); Avi tag (biotinylated); made in house; host or cells: E. coli BL21(DE3)", "experiment": "SPR binding of peptides to immobilised biotinylated BET bromodomain", "description": "as §1, §2, §3, §4, §5, §6, §7, §8"}, "[7]": {"target": "T5, BRD2-BD2 (Homo sapiens, UniProt P25440)", "T5 construct": "human BRD2 (BD1: 65-194; BD2: 347-455); Avi tag (biotinylated); made in house; host or cells: E. coli BL21(DE3)", "T5 sequence (P25440 347-455)": "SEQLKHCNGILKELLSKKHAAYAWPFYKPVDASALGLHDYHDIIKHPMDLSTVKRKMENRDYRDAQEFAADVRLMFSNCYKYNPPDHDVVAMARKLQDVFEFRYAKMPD", "experiment": "SPR binding of peptides to immobilised biotinylated BET bromodomain", "description": "as §1, §5, §6, §7, §8"}, "[8]": {"target": "T6, BRD3-BD1 (Homo sapiens, UniProt Q15059)", "T6 construct": "BRD3 (BD1: 25-147); Avi tag (biotinylated); made in house; host or cells: E. coli BL21(DE3)", "T6 sequence (Q15059 25-147)": "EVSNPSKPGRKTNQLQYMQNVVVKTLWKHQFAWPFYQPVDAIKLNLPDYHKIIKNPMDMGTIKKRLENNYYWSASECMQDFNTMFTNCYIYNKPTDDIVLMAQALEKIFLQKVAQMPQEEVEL", "experiment": "SPR binding of peptides to immobilised biotinylated BET bromodomain", "conditions": "for Kd: gray boxed value: no reproducible signals observed at the concentrations used", "description": "as §1, §5, §6, §7, §8"}, "[9]": {"conditions": "4 C, geometric mean and SD of two to five measurements"}, "[10]": {"conditions": "gray boxed value: no reproducible signals observed at the concentrations used"}}, "note": "Where a SMILES comes first, the peptide text is derived from it. Bridges are numbered along the chain shown (N, C = ends).", "data": [{"smiles": "CC[C@H](C)[C@@H]1NC(=O)[C@H](CCCCN)NC(=O)[C@H](CC(C)C)NC(=O)CNC(=O)[C@H](Cc2ccc(O)cc2)NC(=O)[C@H](CCCCNC(C)=O)NC(=O)[C@H](CCCCN)NC(=O)[C@H](Cc2c[nH]c3ccccc23)NC(=O)[C@H](CCC(N)=O)NC(=O)[C@H](CCCCNC(C)=O)NC(=O)[C@H](Cc2c[nH]c3ccccc23)NC(=O)CSC[C@@H](C(N)=O)NC1=O", "note": "[3.2C] ({CH2CO}-WK(Ac)QWKK(Ac)YGLKIC-NH2; thioether N-12)", "values": [{"measurement": "binding to BD1 domains (in words)", "setting": "[1]", "result": "did not bind strongly"}, {"measurement": "selectivity between BD2 and BD1 domains", "setting": "[2]", "result": "10- to 100 fold"}, {"measurement": "Kd", "setting": "[2]; read-out: affinities for the BD2 domains", "result": "10 to 100", "unit": "nM"}]}, {"smiles": "CC[C@H](C)[C@@H]1NC(=O)[C@H](CO)NC(=O)[C@@H]2CCCN2C(=O)[C@H](CCCCNC(C)=O)NC(=O)[C@H](CCCNC(=N)N)NC(=O)[C@H](Cc2c[nH]c3ccccc23)NC(=O)[C@H](CCCCNC(C)=O)NC(=O)[C@H](CC(C)C)NC(=O)[C@H](CCCNC(=N)N)NC(=O)[C@H]([C@@H](C)CC)NC(=O)[C@H]([C@@H](C)O)NC(=O)[C@H](Cc2c[nH]cn2)NC(=O)[C@H](Cc2ccc(O)cc2)NC(=O)[C@H](C)NC(=O)[C@H](Cc2c[nH]c3ccccc23)NC(=O)CSC[C@@H](C(N)=O)NC(=O)[C@H](CO)NC1=O", "note": "[4.2B] ({CH2CO}-WAYHTIRLK(Ac)WRK(Ac)PSISC-NH2; thioether N-17)", "values": [{"measurement": "Kd", "setting": "[3]; [9]", "result": "22 ± 0.028", "unit": "nM"}, {"measurement": "Kd", "setting": "[4]; [9]", "result": "16 ± 11", "unit": "nM"}, {"measurement": "Kd", "setting": "[5]; [10]", "result": "> 10000", "unit": "nM"}, {"measurement": "Kd", "setting": "[6]; [9]", "result": "1.1 ± 0.04", "unit": "nM"}, {"measurement": "Kd", "setting": "[7]; [9]", "result": "2.7 ± 6", "unit": "nM"}, {"measurement": "Kd", "setting": "[8]", "result": "> 10000", "unit": "nM"}, {"measurement": "selectivity for BD2 domains over BD1 domains (in words)", "setting": "[2]", "result": "significant selectivity"}]}, {"smiles": "CC[C@H](C)[C@@H]1NC(=O)[C@H]([C@@H](C)O)NC(=O)[C@H](CCCCN)NC(=O)[C@H](Cc2c[nH]c3ccccc23)NC(=O)CSC[C@@H](C(N)=O)NC(=O)[C@H](CCC(N)=O)NC(=O)[C@H](CCCCNC(C)=O)NC(=O)[C@H]([C@@H](C)O)NC(=O)[C@H](CCCNC(=N)N)NC(=O)[C@H](Cc2c[nH]c3ccccc23)NC(=O)[C@H]([C@@H](C)O)NC(=O)[C@H](C)NC(=O)CNC(=O)[C@H](CCCCNC(C)=O)NC1=O", "note": "[AcK7→Ala] ({CH2CO}-WKTIK(Ac)GATWRTK(Ac)QC-NH2; thioether N-14)", "values": [{"measurement": "reduction of affinity relative to 3.1B", "setting": "[1]", "result": "fourfold"}]}, {"smiles": "CC(=O)NCCCC[C@@H]1NC(=O)[C@H](Cc2c[nH]c3ccccc23)NC(=O)CSC[C@@H](C(=O)N[C@@H](Cc2c[nH]c3ccccc23)C(=O)N[C@@H](CC(C)C)C(=O)N[C@@H](CCCCNC(C)=O)C(=O)N[C@@H](CCCNC(=N)N)C(=O)N[C@@H](CCCCNC(C)=O)C(=O)N[C@@H](CC(C)C)C(=O)N[C@@H](CC(C)C)C(=O)N[C@@H](CC(C)C)C(=O)N[C@@H](CCCNC(=N)N)C(=O)N[C@@H](CS)C(N)=O)NC(=O)[C@H](Cc2c[nH]c3ccccc23)NC(=O)[C@H](CC(N)=O)NC1=O", "note": "[4.2A] ({CH2CO}-WK(Ac)NWCWLK(Ac)RK(Ac)LLLRC-NH2; thioether N-5 (inferred))", "values": [{"measurement": "binding to BRD4-BD2, fold tighter than to other BD2 domains", "setting": "[6]", "result": "4- to 8 fold"}, {"measurement": "binding to BRD3-BD1, fold tighter than to BRD4-BD2", "setting": "[8]", "result": 10, "unit": "fold"}]}, {"smiles": "CC[C@H](C)[C@@H]1NC(=O)[C@H](Cc2c[nH]c3ccccc23)NC(=O)[C@H]([C@@H](C)CC)NC(=O)[C@H](CCCNC(=N)N)NC(=O)[C@H]([C@@H](C)O)NC(=O)[C@H](CC(C)C)NC(=O)[C@H](CCCCNC(C)=O)NC(=O)[C@H]([C@@H](C)O)NC(=O)[C@H](Cc2c[nH]c3ccccc23)NC(=O)[C@H](CCCNC(=N)N)NC(=O)[C@H](CC(C)C)NC(=O)[C@H](Cc2ccc(O)cc2)NC(=O)[C@H]([C@@H](C)O)NC(=O)[C@H](Cc2c[nH]c3ccccc23)NC(=O)CSC[C@@H](C(N)=O)NC(=O)[C@H](CO)NC1=O", "note": "[3.1A] ({CH2CO}-WTYLRWTK(Ac)LTRIWISC-NH2; thioether N-16)", "values": [{"measurement": "interaction with BRD2-BD1 (in words)", "setting": "[3]", "result": "no observable interaction"}]}, {"smiles": "CC[C@H](C)[C@@H]1NC(=O)[C@H](C)NC(=O)[C@H](CCCCN)NC(=O)[C@H](CCCCNC(C)=O)NC(=O)[C@H](Cc2c[nH]c3ccccc23)NC(=O)CSC[C@@H](C(N)=O)NC(=O)[C@H]([C@@H](C)CC)NC(=O)[C@H](Cc2c[nH]cn2)NC(=O)[C@H](CC(C)C)NC(=O)[C@H]([C@@H](C)O)NC(=O)[C@H](CCCCN)NC(=O)[C@H](CC(C)C)NC(=O)[C@H]([C@@H](C)CC)NC(=O)[C@H](CCCCNC(C)=O)NC(=O)CNC(=O)[C@@H]2CCCN2C(=O)[C@H](CC(C)C)NC1=O", "note": "[3.2A] ({CH2CO}-WK(Ac)KAILPGK(Ac)ILKTLHIC-NH2; thioether N-17)", "values": [{"measurement": "Kd", "setting": "[3]; [10]", "result": "> 10000", "unit": "nM"}, {"measurement": "binding to BRD3-BD2 (in words)", "setting": "[4]", "result": "strong binding was not observed"}, {"measurement": "Kd", "setting": "[4]; [10]", "result": "> 10000", "unit": "nM"}, {"measurement": "Kd", "setting": "[5]; [9]", "result": "8.9 ± 20", "unit": "nM"}, {"measurement": "Kd", "setting": "[6]; [10]", "result": "> 10000", "unit": "nM"}, {"measurement": "Kd", "setting": "[7]; [10]", "result": "> 10000", "unit": "nM"}, {"measurement": "Kd", "setting": "[8]", "result": "> 10000", "unit": "nM"}]}, {"smiles": "CC[C@H](C)[C@@H]1NC(=O)[C@H]([C@@H](C)O)NC(=O)[C@H](CCCCN)NC(=O)[C@H](Cc2c[nH]c3ccccc23)NC(=O)CSC[C@@H](C(N)=O)NC(=O)[C@H](CCC(N)=O)NC(=O)[C@H](CCCCNC(C)=O)NC(=O)[C@H]([C@@H](C)O)NC(=O)[C@H](CCCNC(=N)N)NC(=O)[C@H](Cc2c[nH]c3ccccc23)NC(=O)[C@H]([C@@H](C)O)NC(=O)[C@H](CCCCNC(C)=O)NC(=O)CNC(=O)[C@H](C)NC1=O", "note": "[AcK5→Ala] ({CH2CO}-WKTIAGK(Ac)TWRTK(Ac)QC-NH2; thioether N-14)", "values": [{"measurement": "reduction of affinity relative to 3.1B", "setting": "[1]", "result": "~80", "unit": "fold"}]}]}
